Measured values from article PMC10791743, “Selective CK1α degraders exert antiproliferative activity against a broad range of human cancer cell lines” (Nature Communications, 2024).
Several values for one entry are separate records, joined by “and”; a condition that tells them apart may be missing. Equal entries are not always repeated.

Tests used:
IKZF2 = target: T1, IKZF2 (Homo sapiens, UniProt Q96SW2+Q9UKS7); assay: IKZF2 immunoblotting in MOLM-13 cells; format: cell-based
T1 construct: endogenous in cells; host or cells: MOLM-13
T1 sequence (Q9UKS7 whole entry): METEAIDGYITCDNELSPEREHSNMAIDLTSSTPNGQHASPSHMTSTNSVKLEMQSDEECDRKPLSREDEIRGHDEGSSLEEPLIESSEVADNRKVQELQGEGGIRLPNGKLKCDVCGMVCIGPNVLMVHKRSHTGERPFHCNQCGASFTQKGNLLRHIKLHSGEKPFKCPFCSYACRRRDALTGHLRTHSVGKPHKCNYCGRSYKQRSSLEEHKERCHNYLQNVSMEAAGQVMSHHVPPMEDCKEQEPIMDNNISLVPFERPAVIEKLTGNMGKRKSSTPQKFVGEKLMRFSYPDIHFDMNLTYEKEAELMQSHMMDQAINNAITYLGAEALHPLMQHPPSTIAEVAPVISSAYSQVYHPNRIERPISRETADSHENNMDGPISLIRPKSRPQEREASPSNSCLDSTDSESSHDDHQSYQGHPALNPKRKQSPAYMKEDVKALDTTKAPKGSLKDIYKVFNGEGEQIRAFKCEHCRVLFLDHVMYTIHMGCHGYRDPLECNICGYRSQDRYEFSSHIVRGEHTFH
T1 sequence (Q96SW2 whole entry): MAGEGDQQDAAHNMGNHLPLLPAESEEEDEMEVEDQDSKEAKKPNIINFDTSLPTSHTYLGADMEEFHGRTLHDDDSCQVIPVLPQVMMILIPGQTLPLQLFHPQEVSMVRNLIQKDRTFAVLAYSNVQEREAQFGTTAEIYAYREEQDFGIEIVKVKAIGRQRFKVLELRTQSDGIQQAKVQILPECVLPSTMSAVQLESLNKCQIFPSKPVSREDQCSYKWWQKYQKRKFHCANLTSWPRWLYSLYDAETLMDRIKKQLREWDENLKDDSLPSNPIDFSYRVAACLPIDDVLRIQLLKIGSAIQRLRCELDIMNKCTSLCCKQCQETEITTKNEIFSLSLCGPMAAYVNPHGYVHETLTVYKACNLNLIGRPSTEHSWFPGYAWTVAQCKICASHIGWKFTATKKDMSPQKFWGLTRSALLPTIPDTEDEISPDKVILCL
T1 sequence (Q16531 whole entry partner): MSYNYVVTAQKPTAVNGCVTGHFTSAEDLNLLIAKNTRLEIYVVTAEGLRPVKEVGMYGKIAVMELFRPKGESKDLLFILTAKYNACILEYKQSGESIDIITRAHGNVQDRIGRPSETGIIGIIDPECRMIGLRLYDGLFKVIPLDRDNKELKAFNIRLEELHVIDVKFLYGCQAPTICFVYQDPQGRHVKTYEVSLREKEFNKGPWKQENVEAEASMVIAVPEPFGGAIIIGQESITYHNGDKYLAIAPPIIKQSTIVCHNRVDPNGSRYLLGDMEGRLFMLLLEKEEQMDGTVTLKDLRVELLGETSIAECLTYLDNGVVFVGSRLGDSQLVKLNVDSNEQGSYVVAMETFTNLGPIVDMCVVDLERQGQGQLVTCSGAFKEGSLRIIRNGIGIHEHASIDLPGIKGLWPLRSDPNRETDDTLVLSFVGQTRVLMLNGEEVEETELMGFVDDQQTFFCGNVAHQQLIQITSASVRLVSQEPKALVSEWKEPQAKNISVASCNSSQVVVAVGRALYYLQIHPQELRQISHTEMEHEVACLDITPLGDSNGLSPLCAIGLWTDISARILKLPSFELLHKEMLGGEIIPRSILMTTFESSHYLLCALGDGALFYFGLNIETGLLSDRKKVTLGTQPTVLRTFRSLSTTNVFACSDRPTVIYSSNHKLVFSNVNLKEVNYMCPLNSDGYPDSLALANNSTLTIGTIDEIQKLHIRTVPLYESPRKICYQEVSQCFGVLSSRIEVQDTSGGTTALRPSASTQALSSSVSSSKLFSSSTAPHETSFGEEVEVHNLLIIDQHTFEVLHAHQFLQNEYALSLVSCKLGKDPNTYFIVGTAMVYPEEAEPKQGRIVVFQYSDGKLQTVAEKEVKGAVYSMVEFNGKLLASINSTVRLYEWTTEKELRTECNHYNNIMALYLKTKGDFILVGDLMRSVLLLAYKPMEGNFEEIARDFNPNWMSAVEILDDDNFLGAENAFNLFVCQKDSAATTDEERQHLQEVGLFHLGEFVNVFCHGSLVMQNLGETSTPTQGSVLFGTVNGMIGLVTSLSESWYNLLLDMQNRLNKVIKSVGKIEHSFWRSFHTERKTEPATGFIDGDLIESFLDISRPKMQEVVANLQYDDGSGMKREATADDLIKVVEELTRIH
Method: We further tested the specificity of SJ3149 considering that previously reported CK1α degraders also lead to degradation of IKZF2[26]. Even though there was a negligible change in IKZF2 protein level in our proteomics studies, we sought to confirm this observation by immunoblotting. In a similar experiment to those shown in Fig. 2b, MOLM-13 cells were treated with SJ3149 for 4 h at increasing concentrations ranging from 1 nM to 10 µM and analyzed by immunoblotting to quantify IKZF2 and CK1α proteins. While at 4 nM concentration SJ3149 induced 50% degradation of CK1α protein, IKZF2 levels were reduced by only ~40% at the highest dose (10 μM), confirming the selectivity of SJ3149 for CK1α over IKZF2 (Supplementary Fig. 6d). These collective data support the claim that CK1α degradation is responsible for the observed cellular phenotypes induced by SJ3149 treatment.
Frozen pellets of ~1 million cells were lysed in 150 µl of SDS lysis buffer (60 mM Tris/HCl pH 7, 10% glycerol, 2% SDS, 5% beta-mercaptoethanol, 0.02% bromophenol blue, 0.5% protease and phosphatase inhibitor cocktail (Sigma Aldrich)). When cells were resuspended, samples were heated for 3 min at 99 °C then put on ice. Samples were then fragmented by sonication for 10 0.5-s pulses (550 Sonic Dismembrator, Fisher Scientific) and heated again at 99 °C for 2 min. 15 μl of each sample was added to the wells of a 4–20% polyacrylamide gel (Bio-Rad). A mixture of 2 μl of Precision Plus Protein Unstained Standards and 2 μl of Precision Plus Protein All Blue Standards (Bio-Rad) was used for the size marker. After electrophoresis, gels were transferred to nitrocellulose membrane using the Bio-Rad Trans-Blot Turbo system on the mixed molecular weight setting. Membranes were blocked for 1 h in Li-Cor Intercept Blocking Buffer then probed overnight at 4 °C with primary antibody, at 1:1000 dilution or 1:2000 dilution for actin, in Li-Cor Intercept Antibody Diluent. The following morning, membranes were washed three times for 5 min with TBS + 0.05% Tween-20, probed with fluorescent secondary antibodies (goat anti-rabbit IRDye 800CW and goat anti-mouse IRDye 680RD, Li-Cor) for 1 h at room temperature in the dark at 1:10,000 dilution, and washed again 3 times. Blots were imaged with the Li-Cor Odyssey CLx and analyzed using Image Studio Version 5.2.
Primary antibodies used: rabbit anti-CK1α, ab206652, clone EPR19824, Abcam rabbit anti-p21, 2947S, clone 12D1, Cell Signaling Technology rabbit anti-Helios (IKZF2), 42427, clone D8W4X, Cell Signaling Technology mouse anti-beta actin, 3700S, clone 8H10D10, Cell Signaling Technology

[1] = Metabolic stability in cryopreserved hepatocytes, mouse; format: in vitro ADME; conditions: mouse, cryopreserved hepatocytes; read-out: Hepatocyte stability t1/2
Method: page 34: UHPLC-MS/MS System: Chromatographic separation was performed on an Acquity UPLC BEH […] with 6500+ Qtrap system. […] software suite. The UPLC column was maintained at 55 °C. Mobile phase A was 0.1% formic acid in MilliQ H2O and Mobile phase B was 0.1% formic acid in acetonitrile. The flow rate was 0.9 […] The mass spectrometer was operated in positive-ion mode with electrospray ionization. MRM transition m/z […] plasma stability and plasma protein binding. The following MS parameters were employed for analyte measurements: ion spray voltage 5 kV, temperature 550 °C, gas 1 and gas 2 were 60, entrance potential (EP): 10 V, declustering potential (DP): 50 V, collision energy (CE): 27 V, and collision cell exit potential (CXP): 16 V. Metabolic Stability in mouse and human cryopreserved hepatocytes. 10 mM test compounds were provided by Compound Sample Group. Diluted 10 mM test compounds and 30 mM positive control compounds (7-ethoxycoumarin) to 1 mM and 3 mM with DMSO in 96-well plates. Diluted 1 mM test compounds and 3 mM positive control compounds to 100 μM and 300 μM dosing solutions with ACN. Cryopreserved cells were thawed, isolated and suspended in Incubation Medium, then diluted with pre-warmed Incubation Medium to 0.5 × 10^6cells/mL. Added 198 μL of pre-warmed cell suspensions in 96 -well plates. Transferred 125 μL of stop solution (acetonitrile containing 200 ng/mL tolbutamide and 200 ng/mL labetalol as internal standards) in a set of pre- labeled 96-well plates. Spike d 2 μL dosing solution to each well of 96 -well plates in duplicates. For T0 Samples, mix ed to achieve a homogenous suspension for about 1 min, then immediately transferred 25 μL of each sample into well containing 125 μL of ice -cold stop solution followed by mixing. Incubated all plates at 37°C in a 95% humidified incubator at 5% CO 2 to start the reactions page 35: with constant shaking at about 600 rpm. At 15, 30, 60 and 90 min, mixed samples and then transferred 25 μL of each sample at each time point to well containing 125 μL of ice -cold stop solution followed by mixing. Medium Control (MC) sample plates (labeled as T0-MC and T90- MC) were prepared at T0 and T90 by adding the same components to each well except cell suspensions. At each corresponding time point, stopped the reactions by removing the plates from incubator and mixing with 125 μL of ice-cold stop solution. Vortexed the plates immediately on a plate shaker at 500 rpm for 10 minutes. Then, centrifuge d all sample plates at 3220 x g for 20 min at 4°C. After centrifugation, 80 μL/well of supernatant in the sample plates were transferred to another set of pre-labeled 96-well plates which containing 240 μL of ultra pure water according to the plate map. Analytical plates were sealed and stored at 4°C until LC-MS/MS analysis. Thawing Medium: Williams' Medium E containing 5% fetal bovine serum and 30% Perc oll solution and other supplements. Incubation Medium: Williams' Medium E (no phenol red) containing 2 mM L-Glutamine and 25 mM HEPES. Stop Solution: Acetonitrile containing 200 ng/mL tolbutamide and labetalol as internal standards. Dilution Solution: Ultra-pure water. The remaining percents of test articles after incubation were calculated by the follow equations: Equation ( 6): Use equation of first order kinetics [NT] […] The data was […] concatenated with a reversed decoy database for evaluating False Discovery Rate (FDR). […]

[2] = western blot quantification, relative to DMSO

Question: What does the source list for `O=C1CCC(N2Cc3cc(Nc4noc5ccccc45)ccc3C2=O)C(=O)N1` (stereo not drawn) [SJ3149]?
Answer: IKZF2 level reduction (IKZF2; MOLM-13, 10 μM, 4 h): ~ 40%; IKZF2 western blot quantification (IKZF2; SJ3149 0.001 uM, relative to DMSO): 1.093 and 0.9655 and 0.8978; IKZF2 western blot quantification (IKZF2; SJ3149 0.01 uM, relative to DMSO): 0.8205 and 1.143 and 0.8035; IKZF2 western blot quantification (IKZF2; SJ3149 0.1 uM, relative to DMSO): 0.5925 and 0.7587 and 0.8297; IKZF2 western blot quantification (IKZF2; SJ3149 1 uM, relative to DMSO): 0.5412 and 0.7758 and 0.64; IKZF2 western blot quantification (IKZF2; SJ3149 10 uM, relative to DMSO): 0.4999 and 0.6664 and 0.6326; Bottom (sigmoidal 4PL fit) of IKZF2 protein level (IKZF2; [2]): 0.61; Top (sigmoidal 4PL fit) of IKZF2 protein level (IKZF2; [2]): 1.002; half-life at 1 µM [1]: > 3.6 h
